Source: EP1769804B1, “hPTH(1-34) for use in preventing or reducing the incidence or severity of vertebral and / or non vertebral fracture in a male human” (priority 1998, dated 2012)
Marks after values point to notes of the source that are not given here.

Assays:
Assay type in all cases: in vivo, Macaca fascicularis
Ovariectomized Primates [1] = experiment: Biomechanical measures of strength in the spine (lumbar vertebrae L-3 and L-4); details: for A (cross-sectional area) / E (Young's modulus) / Fy (yield force) / S (stiffness): L-3 and L-4 combined, mean ± SEM
Source text: (§1) Biomechanical tests were done on lumbar vertebrae L-3 to L-4, the femur neck, humerus midshaft, and on a cortical bone specimen machined from the femur diaphysis (measures defined in Table 2). Conventional static and dynamic histomorphometry were done (measures described in Table 6) on the humerus midshaft, lumbar vertebra L-2, femoral neck, femur midshaft, the radius midshaft and distal radius. Initial statistical analyses compared all groups to vehicle-treated ovariectomized controls. The data is suitable for additional exploratory analyses to examine dose dependency, effects of withdrawal, interactions between outcomes, and changes in time by methods known to those of skill in the art. All assays were conducted and determined by methods known in the art.

Ovariectomized Primates [2] = experiment: Biomechanical measure of strength of femur neck; design: Fa, Proximal femur neck: unit not given here; details: for Fa, Proximal femur neck: mean ± SEM
Source text: as §1

Ovariectomized Primates [3] = experiment: Cortical histomorphometry of the humerus midshaft; details: mean ± SEM
Source text: as §1
For certain experimental subjects, cortical bone of the humerus was examined by histomorphometry and by polarized Fourier transform infrared microscopy. The Fourier transform infrared microscopy was conducted by an adaptation of known methods for such microscopy.

[4] = PTH1-W: withdrawal for 6 months after 1 µg/kg for 12 months
[5] = PTH5-W: withdrawal for 6 months after 5 µg/kg for 12 months
[6] = compared to ovariectomized controls
[7] = PTH1-W: withdrawal after 1 µg/kg for 12 months
[8] = PTH5-W: withdrawal after 5 µg/kg for 12 months

Substance: teriparatide [rhPTH(1-34)]
- A (cross-sectional area) (Ovariectomized Primates [1]; [4]): 90.9±2.3 mm^2
- E (Young's modulus) (Ovariectomized Primates [1]; [4]): 659±42 Mpa
- Fy (yield force) (Ovariectomized Primates [1]; [4]): 1899±73^a N
- S (stiffness) (Ovariectomized Primates [1]; [4]): 7401±432^a N/mm
- E (Young's modulus) (Ovariectomized Primates [1]; PTH1: 1 µg/kg for 18 months): 717±48^a Mpa
- Fy (yield force) (Ovariectomized Primates [1]; PTH1: 1 µg/kg for 18 months): 1915±105^a N
- S (stiffness) (Ovariectomized Primates [1]; PTH1: 1 µg/kg for 18 months): 7701 ± 474^a N/mm
- A (cross-sectional area) (Ovariectomized Primates [1]; [5]): 82.8±2.1 mm^2
- E (Young's modulus) (Ovariectomized Primates [1]; [5]): 698±41^a Mpa
- Fy (yield force) (Ovariectomized Primates [1]; [5]): 1792±39^a N
- S (stiffness) (Ovariectomized Primates [1]; [5]): 7074±314^a N/mm
- A (cross-sectional area) (Ovariectomized Primates [1]; PTH5: 5 µg/kg for 18 months): 87.3±2.7 mm^2
- E (Young's modulus) (Ovariectomized Primates [1]; PTH5: 5 µg/kg for 18 months): 759±36^a Mpa
- Fy (yield force) (Ovariectomized Primates [1]; PTH5: 5 µg/kg for 18 months): 2113±77^3.0 N
- S (stiffness) (Ovariectomized Primates [1]; PTH5: 5 µg/kg for 18 months): 8012 ±367^a N/mm
- increase of strength (Fy) in the vertebrae (Ovariectomized Primates [1]; [6]): up to 43%
- Fa, Proximal femur neck (Ovariectomized Primates [2]; [7]): 1258 ± 52^a
- Fa, Proximal femur neck (Ovariectomized Primates [2]; PTH1: 1 µg/kg for 18 months): 1235 ± 43^a
- Fa, Proximal femur neck (Ovariectomized Primates [2]; [8]): 1213 ± 42
- Fa, Proximal femur neck (Ovariectomized Primates [2]; PTH5: 5 µg/kg for 18 months): 1362 ± 30^a
- improvement of strength in the femur neck (fu) (Ovariectomized Primates [2]; [6]): up to 12%
- Ac.F (Activation frequency) (Ovariectomized Primates [3]; [7]): 3.05 ± 2.15^a cycles/year
- B.Ar (Bone area, the total area within the periosteal surface) (Ovariectomized Primates [3]; [7]): 54.94 ± 6.55 mm^2
- BFR/BS.Ec (bone formation rate, endocortical surface referent) (Ovariectomized Primates [3]; [7]): 14.89 ± 10.32 µm/day
- BFR/BS.Ps (Bone formation rate, periosteal surface referent) (Ovariectomized Primates [3]; [7]): 3.60 ± 3.84^a µm/day
- BFR/BV (Bone formation rate, bone volume referent) (Ovariectomized Primates [3]; [7]): 4.39 ± 3.48^a %/year
- Ct.Ar (Cortical area) (Ovariectomized Primates [3]; [7]): 38.10 ± 4.83 mm^2
- FP (Formation period) (Ovariectomized Primates [3]; [7]): 64.94 ± 11.99 days
- L.On.N/Ct.A (Number of fluorochrome labeled osteons per unit cortical area) (Ovariectomized Primates [3]; [7]): 0.50 ± 0.36^a #/mm^2
- MAR (Mineral apposition rate, intracortical) (Ovariectomized Primates [3]; [7]): 1.06 ± 0.27 µm/day
- MAR.Ec (Mineral apposition rate, endocortical surface) (Ovariectomized Primates [3]; [7]): 0.66 ± 0.16 µm/day
- MAR.Ps (mineral apposition rate, periosteal surface) (Ovariectomized Primates [3]; [7]): 0.54 ± 0.15^a µm/day
- MS/BS.Ec (mineralizing endocortical surface normalized to total endocortical surface) (Ovariectomized Primates [3]; [7]): 11.74 ± 14.41^a %
- MS/BS.Ps (Mineralizing periosteal surface normalized to total periosteal surface) (Ovariectomized Primates [3]; [7]): 3.86 ± 4.83^a %
- Me.Ar (Medullary cavity area) (Ovariectomized Primates [3]; [7]): 16.84 ± 3.74 mm^2
- O.Wi (Osteoid width) (Ovariectomized Primates [3]; [7]): 3.96 ± 0.83 µm
- Po (Porosity, the percentage of bone area occupied by spaces) (Ovariectomized Primates [3]; [7]): 2.23 ± 1.60%
- Rs.N/Ct.A (number of resorption spaces per unit cortical area) (Ovariectomized Primates [3]; [7]): 0.12 ± 0.07^a #/mm^2
- W.Wi (Osteonal wall width) (Ovariectomized Primates [3]; [7]): 63.12 ± 17.35 µm
- omt (Osteoid maturation time) (Ovariectomized Primates [3]; [7]): 3.86 ± 0.74 days
- Ac.F (Activation frequency) (Ovariectomized Primates [3]; PTH1: 1 µg/kg for 18 months): 7.69 ± 4.96 cycles/year
- B.Ar (Bone area, the total area within the periosteal surface) (Ovariectomized Primates [3]; PTH1: 1 µg/kg for 18 months): 54.22 ± 5.97 mm^2
- BFR/BS.Ec (bone formation rate, endocortical surface referent) (Ovariectomized Primates [3]; PTH1: 1 µg/kg for 18 months): 18.14 ± 13.95 µm/day
- BFR/BS.Ps (Bone formation rate, periosteal surface referent) (Ovariectomized Primates [3]; PTH1: 1 µg/kg for 18 months): 8.53 ± 10.54 µm/day
- BFR/BV (Bone formation rate, bone volume referent) (Ovariectomized Primates [3]; PTH1: 1 µg/kg for 18 months): 19.23 ± 5.93 %/year
- Ct.Ar (Cortical area) (Ovariectomized Primates [3]; PTH1: 1 µg/kg for 18 months): 37.61 ± 3.86 mm^2
- FP (Formation period) (Ovariectomized Primates [3]; PTH1: 1 µg/kg for 18 months): 63.44 ± 10.02 days
- L.On.N/Ct.A (Number of fluorochrome labeled osteons per unit cortical area) (Ovariectomized Primates [3]; PTH1: 1 µg/kg for 18 months): 1.26 ± 0.71 #/mm^2
- MAR (Mineral apposition rate, intracortical) (Ovariectomized Primates [3]; PTH1: 1 µg/kg for 18 months): 0.98 ± 0.12^a µm/day
- MAR.Ec (Mineral apposition rate, endocortical surface) (Ovariectomized Primates [3]; PTH1: 1 µg/kg for 18 months): 0.66 ± 0.15 µm/day
- MAR.Ps (mineral apposition rate, periosteal surface) (Ovariectomized Primates [3]; PTH1: 1 µg/kg for 18 months): 0.89 ± 0.95 µm/day
- MS/BS.Ec (mineralizing endocortical surface normalized to total endocortical surface) (Ovariectomized Primates [3]; PTH1: 1 µg/kg for 18 months): 25.19 ± 17.14%
- MS/BS.Ps (Mineralizing periosteal surface normalized to total periosteal surface) (Ovariectomized Primates [3]; PTH1: 1 µg/kg for 18 months): 8.59 ± 5.73%
- Me.Ar (Medullary cavity area) (Ovariectomized Primates [3]; PTH1: 1 µg/kg for 18 months): 16.61 ± 3.77 mm^2
- O.Wi (Osteoid width) (Ovariectomized Primates [3]; PTH1: 1 µg/kg for 18 months): 3.66 ± 0.67 µm
- Po (Porosity, the percentage of bone area occupied by spaces) (Ovariectomized Primates [3]; PTH1: 1 µg/kg for 18 months): 4.65 ± 4.78%
- Rs.N/Ct.A (number of resorption spaces per unit cortical area) (Ovariectomized Primates [3]; PTH1: 1 µg/kg for 18 months): 0.28 ± 0.18 #/mm^2
- W.Wi (Osteonal wall width) (Ovariectomized Primates [3]; PTH1: 1 µg/kg for 18 months): 61.36 ± 7.79 µm
- omt (Osteoid maturation time) (Ovariectomized Primates [3]; PTH1: 1 µg/kg for 18 months): 3.76 ± 0.70 days
- Ac.F (Activation frequency) (Ovariectomized Primates [3]; [8]): 2.05 ± 1.46^a cycles/year
- B.Ar (Bone area, the total area within the periosteal surface) (Ovariectomized Primates [3]; [8]): 58.16 ± 8.79^a mm^2
- BFR/BS.Ec (bone formation rate, endocortical surface referent) (Ovariectomized Primates [3]; [8]): 12.73 ± 16.33^a µm/day
